Experimental data taken from US9115061B2, “Naphthalene-based inhibitors of anti-apoptotic proteins” (BURNHAM INSTITUTE FOR MEDICAL RESEARCH, priority 2007, dated 2015).
Where two headings read alike, the source gives them in different places.

Assays:
BCL-XL [1] = target: T1, BCL-XL (Homo sapiens (Human), UniProt Q07817); assay: 1D 1H-NMR binding assay; details: 4-point-rating scale; compounds 200 μM, BCL-XL 25 μM; note: key: +++: Very Active; ++: Active; +: Mild; −: Weak
Description: By observing the aliphatic region of the spectra, binding could be readily detected due to chemical shift changes in active site methyl groups of Ile, Leu, Thr, Val or Ala (region between −0.8 and 0.3 ppm). All experiments were performed with a 600 MHz spectrometer Bruker Avance 600 equipped with four rf channels and z-axis pulse-field gradients.

Plasma stability = type: in vitro ADME, rat; details: rat plasma, 1 h, 37.5° C.
Description: A 20 μL aliquot of a 10 mM solution in DMSO of the test compound was added to […] of heparinized rat plasma (Lampire, P1-150N) to obtain a 100 μM final solution. The mixture was incubated for 1 h at 37.5° C. Aliquots of 100 μL were taken (0, 30 min, 1 h) and diluted with 200 μL of MeOH containing internal standard.

[2] = Liver microsomal stability; details: for Microsomal Stability (T = 1 hr): rat liver microsomes, 4 μM, 60 min; for microsomal stability compared to apogossypol: rat microsomal preparations
Description: Pooled rat liver microsomes (BD Biosciences, #452701) were preincubated with test compounds at 37.5° C. for 5 min in the absence of NADPH. The reaction was initiated by addition of NADPH and then incubated under the same conditions. […] One aliquot (100 μL) of the incubation mixture was withdrawn at 0, 15, 30, and 60 min and combined immediately with 200 μL of ACN/MeOH containing an internal standard. After mixing, the sample was centrifuged at approximately 13,000 rpm for 12 min. The supernatant was transferred into an autosampler vial and the amount of test compound was quantified using the Shimadzu LCMS 2010EV mass spectrometer. The change of the AUC (area under the curve) of the parent compound as function of time was used as a measure of microsomal stability.

[3] = PAMPA (parallel artificial membrane permeation assay); details: PAMPA, pH 7.2, 8 h
Description: PAMPA is parallel artificial membrane permeation assay. A 96-well microtiter plate (Millipore, # MSSACCEPTOR) was completely filled with aqueous buffer solution (pH 7.2) and covered with a microtiter filterplate (Millipore, # MAPBMN310). The hydrophobic filter material was impregnated with a 10% solution of hexadecane in hexane and the organic solvent was allowed to completely evaporate. Permeation studies were started by the transfer of 200 μL of a 100 μM test compound solution on top of the filterplate. In general phosphate buffer at pH 7.2 buffer was used. The maximum DMSO content of the stock solutions was <5%. In parallel, an equilibrium solution lacking a membrane was prepared using the exact concentrations and specifications but lacking the membrane. The concentrations of the acceptor and equilibrium solutions were determined using the Shimadzu LCMS-2010EV and AUC methods. The permeation of a compound through the membrane layer is described by the percentage permeation (% flux). The flux values were calculated considering the concentration of the acceptor compartment after 8 h and that of a reference well with the same concentration containing no membrane barrier.

H460 cell line = assay: Cell viability, ATP-LITE assay; type: cell-based, human
Description: (§1) The activity of the compounds against human cancer cell lines (PC3ML, H460, H1299, RS11846) were assessed by using the ATP-LITE assay (PerkinElmer). All cells were seeded in either F12 or RPMI1640 medium with 5 mM L-glutamine supplemented with 5% fetal bovine serum (Mediatech Inc.), penicillin and streptomycin (Omega). For maintenance, cells were cultured in 5% FBS. Cells plated into 96 well plates at varying initial densities depending on doubling time. H460 and H1299 plated at 2000 cells/well, A549 and PC3 at 3000 cells/well, and RS118456S at 10,000 cells/well. Compounds were diluted to final concentrations with 0.1% DMSO. Prior to dispensing compounds onto cells, fresh 5% media was placed into wells. Administration of compounds occurred 24 hours after seeding into the fresh media. Cell viability was evaluated using ATP-LITE reagent (PerkinElmer) after 72 hours of treatment. Data were normalized to the DMSO control-treated cells using Prism version 5.01 (Graphpad Software).

GST-BCL-XL ΔTM protein = GST-BCL-XL ΔTM protein (Homo sapiens (Human), UniProt Q07817); assay: Competitive fluorescence polarization assay (FITC-Bak BH3 peptide); type: binding
Description: For competitive binding assays, 100 nM GST-BCL-XL ΔTM protein was preincubated with the tested compound at varying concentrations in 47.5 μL PBS (pH=7.4) in 96-well black plates at room temperature for 10 min, then 2.5 μL of 100 nM FITC-labeled Bak BH3 peptide was added to produce a final volume of 50 μL. The wild-type and mutant Bak BH3 peptides were included in each assay plate as positive and negative controls, respectively.
(§2) IC50 was determined by fitting the experimental data to a sigmoidal dose-response nonlinear regression model (SigmaPlot 10.0.1, Systat Software, Inc., San Jose, Calif., USA). Data reported are mean of three independent experiments ±standard error (SE). […] Fluorescence polarization was measured after 10 min.

GST-BCL-2 = GST-BCL-2 (Homo sapiens (Human), UniProt P10415); assay: Fluorescence polarization assay (FITC-Bim BH3 peptide); type: binding; details: read-out: EC50 FPA BCL-2
Description: as §2, with “After 30 min incubation at room temperature, the polarization values in millipolarization units were measured at excitation/emission wavelengths of 480/535 nm with a multilabel plate reader (PerkinElmer). IC50” for “IC50”, “(SE). Performance of BCL-2 and Mcl-1 FPA are similar.” for “(SE).”

GST-Mcl-1 = GST-Mcl-1 (Homo sapiens (Human), UniProt Q07820); assay: as above; type: binding; details: read-out: EC50 FPA Mcl-1
Description: as §2, with “After 30 min incubation at room temperature, the polarization values in millipolarization units were measured at excitation/emission wavelengths of 480/535 nm with a multilabel plate reader (PerkinElmer). IC50” for “IC50”

BCL-XL [4] = target: T1, BCL-XL; assay: Isothermal titration calorimetry (ITC); type: binding; details: 25° C., pH 7.4
Description: Titrations were performed using a VP-ITC or ITC200 calorimeter from Microcal (Northampton, Mass.). BCL-XL was used at concentrations between 25 and 100 μM in 20 mM sodium phosphate buffer (pH 7.4) and 5-10% DMSO. Titrants were used at concentrations 10-15× of the protein in the same buffer. Titrations were carried out at 25° C. Data were analyzed using Microcal Origin software provided by the ITC manufacturer (Microcal, Northampton, Mass.).

RS11846 cell line = assay: Apoptosis, Annexin V and propidium iodide assay; type: cell-based, human
Description: The apoptotic activity of the compounds against RS11846 cells was assessed by staining with Annexin V- and propidium iodide (PI). Lymphoma cell line, RS11846, was cultured in RPMI 1640 medium (Mediatech Inc., Herndon, Va. 20171) containing 10% fetal bovine serum (Mediatech Inc., Herndon, Va. 20171) and Penicillin/Streptomycin (Mediatech Inc., Herndon, Va. 20171). […] The percentage of viable cells was determined by FITC-Annexin V- and propidium iodide (PI)-labeling, using an Apoptosis Detection kit (BioVision Inc.), and analyzing stained cells by flow cytometry (FACSort; Bectin-Dickinson, Inc.; Mountain View, Calif.). Cells that were annexin-V-negative and PI-negative were considered viable.

PC3ML cells = assay: Cell viability, ATP-LITE assay; type: cell-based, human; details: 72 hours, ATP-LITE
Description: as §1

[5] = 1-2 days; read-out: RS11846 EC50 (Annexin V- and propidium iodide assay)

T1 sequence (Q07817 whole entry): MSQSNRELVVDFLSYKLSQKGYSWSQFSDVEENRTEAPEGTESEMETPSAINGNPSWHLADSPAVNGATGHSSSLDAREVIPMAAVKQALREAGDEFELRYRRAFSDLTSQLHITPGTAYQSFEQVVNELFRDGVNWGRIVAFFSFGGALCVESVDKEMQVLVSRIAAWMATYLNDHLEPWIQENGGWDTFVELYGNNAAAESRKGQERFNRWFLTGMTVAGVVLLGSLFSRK
Chain of GST-BCL-2 (P10415 whole entry): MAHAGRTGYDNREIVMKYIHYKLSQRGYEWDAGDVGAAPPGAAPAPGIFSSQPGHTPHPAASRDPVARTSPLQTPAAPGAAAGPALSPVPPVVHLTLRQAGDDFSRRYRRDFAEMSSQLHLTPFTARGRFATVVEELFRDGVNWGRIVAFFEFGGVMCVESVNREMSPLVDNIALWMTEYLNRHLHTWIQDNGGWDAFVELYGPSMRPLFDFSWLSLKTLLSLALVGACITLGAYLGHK
Chain of GST-BCL-XL ΔTM protein (Q07817 1-209): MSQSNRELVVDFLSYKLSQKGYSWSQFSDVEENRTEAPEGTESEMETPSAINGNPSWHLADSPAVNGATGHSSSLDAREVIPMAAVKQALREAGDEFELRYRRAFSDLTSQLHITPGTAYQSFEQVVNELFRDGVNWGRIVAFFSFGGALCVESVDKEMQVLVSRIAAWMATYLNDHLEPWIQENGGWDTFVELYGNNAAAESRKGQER
Chain of GST-Mcl-1 (Q07820 whole entry): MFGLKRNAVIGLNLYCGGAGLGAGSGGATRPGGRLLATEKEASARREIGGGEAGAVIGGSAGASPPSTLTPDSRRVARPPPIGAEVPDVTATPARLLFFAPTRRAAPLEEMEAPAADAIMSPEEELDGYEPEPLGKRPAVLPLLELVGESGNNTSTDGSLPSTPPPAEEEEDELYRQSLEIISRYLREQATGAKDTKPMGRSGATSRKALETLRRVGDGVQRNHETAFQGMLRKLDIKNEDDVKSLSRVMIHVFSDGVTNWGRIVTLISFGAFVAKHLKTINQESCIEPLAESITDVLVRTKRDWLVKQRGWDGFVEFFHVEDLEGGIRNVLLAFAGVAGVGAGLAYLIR

Cc1cc2cc(O)c(O)cc2c(O)c1-c1c(C)cc2cc(O)c(O)cc2c1O [Compound II, 3,3′-dimethyl-2,2′-binaphthyl-1,1′,6,6′,7,7′-hexaol]
1D 1H-NMR Binding Assay (BCL-XL) (BCL-XL [1]): +

Cc1cc2c(C(=O)C(C)C)c(O)c(O)cc2c(O)c1-c1c(C)cc2c(C(=O)C(C)C)c(O)c(O)cc2c1O [Compound III, 1,1′-(1,1′6,6′,7,7′-hexahydroxy-3,3′-dimethyl-2,2′-binaphthyl-5,5′-diyl)bis(2-methylpropan-1-one)]
1D 1H-NMR Binding Assay (BCL-XL) (BCL-XL [1]): ++

Cc1cc2c(C(=O)c3ccc(-c4ccccc4)cc3)c(O)c(O)cc2c(O)c1-c1c(C)cc2c(C(=O)c3ccc(-c4ccccc4)cc3)c(O)c(O)cc2c1O [Compound IX, (1,1′,6,6′,7,7′-hexahydroxy-3,3′-dimethyl-2,2′-binaphthyl-5,51-diyl)bis(biphenyl-4-ylmethanone)]
1D 1H-NMR Binding Assay (BCL-XL) (BCL-XL [1]): −

CCCCC(CC)CC(=O)c1c(O)c(O)cc2c(O)c(-c3c(C)cc4c(C(=O)CC(CC)CCCC)c(O)c(O)cc4c3O)c(C)cc12 (centres unmarked) [Compound V, 1,1′-(1,1′,6,6′,7,7′-hexahydroxy-3,3′-dimethyl-2,2′-binaphthyl-5,5′-diyl)bis(3-ethylheptan-1-one)]
1D 1H-NMR Binding Assay (BCL-XL) (BCL-XL [1]): +

Cc1cc2c(C(=O)C3CCCC3)c(O)c(O)cc2c(O)c1-c1c(C)cc2c(C(=O)C3CCCC3)c(O)c(O)cc2c1O [Compound VI, (1,1′,6,6′,7,7′-hexahydroxy-3,3′-dimethyl-2,2′-binaphthyl-5,5′-diyl)bis(cyclopentylmethanone)]
1D 1H-NMR Binding Assay (BCL-XL) (BCL-XL [1]): +
Plasma Stability (T = 1 hr) (Plasma stability): 79%
Microsomal Stability (T = 1 hr) [2]: 27%
microsomal stability compared to apogossypol [2]: degraded faster than apogossypol
Cell Permeability [3]: Low

Cc1cc2c(C(=O)c3ccccc3)c(O)c(O)cc2c(O)c1-c1c(C)cc2c(C(=O)c3ccccc3)c(O)c(O)cc2c1O [Compound VII, (1,1′,6,6′,7,7′-hexahydroxy-3,3′-dimethyl-2,2′-binaphthyl-5,5′-diyl)bis(phenylmethanone)]
1D 1H-NMR Binding Assay (BCL-XL) (BCL-XL [1]): +
EC50 (H460 cell line; 72 hours, ATP-LITE): 310 nM

Cc1cc2c(C(=O)c3cccc4ccccc34)c(O)c(O)cc2c(O)c1-c1c(C)cc2c(C(=O)c3cccc4ccccc34)c(O)c(O)cc2c1O [Compound VIII, (1,1′,6,6′,7,7′-hexahydroxy-3,3′-dimethyl-2,2′-binaphthyl-5,5′-diyl)bis(naphthalen-1-ylmethanone)]
1D 1H-NMR Binding Assay (BCL-XL) (BCL-XL [1]): +
EC50 (GST-BCL-XL ΔTM protein; Table 3, read-out: EC50 FPA BCL-XL): 160 nM
EC50 (GST-BCL-2): 1900 nM
EC50 (GST-Mcl-1): 2200 nM
Kd (BCL-XL [4]): 2750 nM
EC50 (RS11846 cell line; [5]): 4200 nM
Plasma Stability (T = 1 hr) (Plasma stability): 62%
Microsomal Stability (T = 1 hr) [2]: 52%
Cell Permeability [3]: Low

Cc1cc2c(C(=O)c3ccc(C(C)(C)C)cc3)c(O)c(O)cc2c(O)c1-c1c(C)cc2c(C(=O)c3ccc(C(C)(C)C)cc3)c(O)c(O)cc2c1O [Compound X, (1,1′,6,6′,7,7′-hexahydroxy-3,3′-dimethyl-2,2′-binaphthyl-5,5′-diyl)bis((4-tert-butylphenyl)methanone)]
1D 1H-NMR Binding Assay (BCL-XL) (BCL-XL [1]): −

Cc1cc2c(C(=O)c3ccc(C(F)(F)F)cc3)c(O)c(O)cc2c(O)c1-c1c(C)cc2c(C(=O)c3ccc(C(F)(F)F)cc3)c(O)c(O)cc2c1O [Compound XI, (1,1′,6,6′,7,7′-hexahydroxy-3,3′-dimethyl-2,2′-binaphthyl-5,5′-diyl)bis((4-(trifluoromethyl)phenyl)methanone)]
1D 1H-NMR Binding Assay (BCL-XL) (BCL-XL [1]): +
EC50 (RS11846 cell line; [5]): 3800 nM

Cc1ccc(CC(=O)c2c(O)c(O)cc3c(O)c(-c4c(C)cc5c(C(=O)Cc6ccc(C)cc6)c(O)c(O)cc5c4O)c(C)cc23)cc1 [Compound XII, 1,1′-(1,1′,6,6′,7,7′-hexahydroxy-3,3′-dimethyl-2,2′-binaphthyl-5,5′-diyl)bis(2-p-tolylethanone)]
EC50 (GST-BCL-2): 780 nM
EC50 (GST-Mcl-1): 1100 nM
times more potent than apogossypol, H460 EC50 (H460 cell line): 4-5 times
EC50 (PC3ML cells): 2500 nM
EC50 (RS11846 cell line; read-out: RS11846 EC50 (Annexin V- and propidium iodide assay); 1-2 days): 3000 nM
Plasma Stability (T = 1 hr) (Plasma stability): 72%
Cell Permeability [3]: Low and Medium

Cc1cc2c(C(=O)Cc3cccc(Br)c3)c(O)c(O)cc2c(O)c1-c1c(C)cc2c(C(=O)Cc3cccc(Br)c3)c(O)c(O)cc2c1O [Compound XIII, 1,1′-(1,1′,6,6′,7,7′-hexahydroxy-3,3′-dimethyl-2,2′-binaphthyl-5,5′-diyl)bis(2-(3-bromophenyl)ethanone)]
1D 1H-NMR Binding Assay (BCL-XL) (BCL-XL [1]): ++

Cc1cc2c(C(=O)CC3CCCCC3)c(O)c(O)cc2c(O)c1-c1c(C)cc2c(C(=O)CC3CCCCC3)c(O)c(O)cc2c1O [Compound XV, 1,1′-(1,1′,6,6′,7,7′-hexahydroxy-3,3′-dimethyl-2,2′-binaphthyl-5,5′-diyl)bis(2-cyclohexylethanone)]
1D 1H-NMR Binding Assay (BCL-XL) (BCL-XL [1]): ++

Cc1cc2c(C(=O)CCc3ccc(F)cc3)c(O)c(O)cc2c(O)c1-c1c(C)cc2c(C(=O)CCc3ccc(F)cc3)c(O)c(O)cc2c1O [Compound XVI, 1,1′-(1,1′,6,6′,7,7′-hexahydroxy-3,3′-dimethyl-2,2′-binaphthyl-5,5′-diyl)bis(3-(4-fluorophenyl)propan-1-one)]
1D 1H-NMR Binding Assay (BCL-XL) (BCL-XL [1]): +

Cc1cc2c(C(=O)c3nc4ccccc4s3)c(O)c(O)cc2c(O)c1-c1c(C)cc2c(C(=O)c3nc4ccccc4s3)c(O)c(O)cc2c1O [Compound XVII, (1,1′,6,6′,7,7′-hexahydroxy-3,3′-dimethyl-2,2′-binaphthyl-5,5′-diyl)bis(benzo[d]thiazol-2-ylmethanone)]
1D 1H-NMR Binding Assay (BCL-XL) (BCL-XL [1]): ++
IC50 (GST-BCL-XL ΔTM protein; read-out: FPA IC50 (BCL-XL)): 390 nM
Plasma Stability (T = 1 hr) (Plasma stability): 90%
Microsomal Stability (T = 1 hr) [2]: 68%
Cell Permeability [3]: Medium

Cc1cc2c(C(=O)C(C)(C)C)c(O)c(O)cc2c(O)c1-c1c(C)cc2c(C(=O)C(C)(C)C)c(O)c(O)cc2c1O [Compound XVIII, 1,1′-(1,1′,6,6′,7,7′-hexahydroxy-3,3′-dimethyl-2,2′-binaphthyl-5,5′-diyl)bis(2,2-dimethylpropan-1-one)]
1D 1H-NMR Binding Assay (BCL-XL) (BCL-XL [1]): ++
Plasma Stability (T = 1 hr) (Plasma stability): 90%
Microsomal Stability (T = 1 hr) [2]: 30%
microsomal stability compared to apogossypol [2]: degraded faster than apogossypol
Cell Permeability [3]: Medium

CCCCC(=O)c1c(O)c(O)cc2c(O)c(-c3c(C)cc4c(C(=O)CCCC)c(O)c(O)cc4c3O)c(C)cc12 [Compound XX, 1,1′-(1,1′,6,6′,7,7′-hexahydroxy-3,3′-dimethyl-2,2′-binaphthyl-5,5′-diyl)dipentan-1-one]
1D 1H-NMR Binding Assay (BCL-XL) (BCL-XL [1]): +
